Reference: ChEMBL document CHEMBL1201862, “PubChem BioAssay data set” (2004)
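Briefly, cells in 96-well plates were exposed to five compound concentrations for 48 h, and endpoints were estimated by linear interpolation. Here, GI50 denotes the concentration required for 50% inhibition of growth.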 Calls of active or inactive are those of the source. No stated cut-off is given here; in the data, active = GI50 up to about 1.1 µM and inactive = higher.

What was measured:
Experiment in all cases: NCI-60 cell line screen, 48 h
MOLT-4 = test system: MOLT-4
CCRF-CEM = test system: CCRF-CEM
786-0 = test system: 786-0
NCI/ADR-RES = test system: NCI/ADR-RES
EKVX = test system: EKVX
K562 = test system: K562
SK-MEL-2 = test system: SK-MEL-2
ACHN = test system: ACHN
KM12 = test system: KM12
SN12C = test system: SN12C
SF-539 = test system: SF-539
PC-3 = test system: PC-3
SR = test system: SR
HOP-62 = test system: HOP-62
UO-31 = test system: UO-31
OVCAR-5 = test system: OVCAR-5
RPMI-8226 = test system: RPMI-8226
UACC-257 = test system: UACC-257
NCI-H23 = test system: NCI-H23
SK-OV-3 = test system: SK-OV-3
HCT-15 = test system: HCT-15
A498 = test system: A498
RXF 393 = test system: RXF 393
NCI-H460 = test system: NCI-H460
Hs-578T = test system: Hs-578T
DU-145 = test system: DU-145
BT-549 = test system: BT-549
HCT-116 = test system: HCT-116
A549 = test system: A549
SF-268 = test system: SF-268
MCF7 = test system: MCF7
U-251 = test system: U-251
OVCAR-3 = test system: OVCAR-3
CAKI-1 = test system: CAKI-1
HT-29 = test system: HT-29
SK-MEL-5 = test system: SK-MEL-5
M14 = test system: M14
SF-295 = test system: SF-295
NCI-H522 = test system: NCI-H522
UACC-62 = test system: UACC-62
OVCAR-4 = test system: OVCAR-4
OVCAR-8 = test system: OVCAR-8
COLO 205 = test system: COLO 205
HL-60 = test system: HL-60
SNB-75 = test system: SNB-75
SNB-19 = test system: SNB-19
MDA-N = test system: MDA-N
Malme-3M = test system: Malme-3M
TK-10 = test system: TK-10
MDA-MB-435 = test system: MDA-MB-435
IGROV-1 = test system: IGROV-1
MDA-MB-231 = test system: MDA-MB-231
NCI-H226 = test system: NCI-H226
HCC 2998 = test system: HCC 2998
T47D = test system: T47D
LOX IMVI = test system: LOX IMVI
SK-MEL-28 = test system: SK-MEL-28
HOP-92 = test system: HOP-92
SW-620 = test system: SW-620

COc1ccc(/N=N/C(=N/NC(=O)c2ccccc2)c2ccc(N(CCC#N)CCC#N)cc2C)cc1
GI50 (MOLT-4): 49.5 µM (inactive)
GI50 (CCRF-CEM): 36.7 µM (inactive)
GI50 (786-0): 47.5 µM (inactive)
GI50 (NCI/ADR-RES): > 100 µM (inactive)
GI50 (EKVX): 97.9 µM (inactive)
GI50 (K562): 19.5 µM (inactive)
GI50 (SK-MEL-2): 88.5 µM (inactive)
GI50 (ACHN): 54.3 µM (inactive)
GI50 (KM12): 11.6 µM (inactive)
GI50 (SN12C): 56.1 µM (inactive)
GI50 (SF-539): 19.3 µM (inactive)
GI50 (PC-3): 19.1 µM (inactive)
GI50 (SR): 6.19 µM (inactive)
GI50 (HOP-62): 51.6 µM (inactive)
GI50 (UO-31): 52 µM (inactive)
GI50 (OVCAR-5): > 100 µM (inactive)
GI50 (RPMI-8226): > 100 µM (inactive)
GI50 (UACC-257): 78.7 µM (inactive)
GI50 (NCI-H23): 25.5 µM (inactive)
GI50 (SK-OV-3): 75.3 µM (inactive)
GI50 (HCT-15): 26.1 µM
GI50 (A498): 25.6 µM (inactive)
GI50 (RXF 393): 34.8 µM (inactive)
GI50 (NCI-H460): 23.1 µM (inactive)
GI50 (Hs-578T): 23.4 µM (inactive)
GI50 (DU-145): 81.3 µM (inactive)
GI50 (BT-549): 52.4 µM (inactive)
GI50 (HCT-116): 29.9 µM (inactive)
GI50 (A549): 38.2 µM (inactive)
GI50 (SF-268): 58.2 µM (inactive)
GI50 (MCF7): 18.5 µM (inactive)
GI50 (U-251): 60.5 µM (inactive)
GI50 (OVCAR-3): 17.7 µM (inactive)
GI50 (CAKI-1): > 100 µM (inactive)
GI50 (HT-29): 17.9 µM (inactive)
GI50 (SK-MEL-5): 18.2 µM (inactive)
GI50 (M14): 50.5 µM (inactive)
GI50 (SF-295): 21.5 µM (inactive)
GI50 (NCI-H522): 10.7 µM (inactive)
GI50 (UACC-62): 38.5 µM (inactive)
GI50 (OVCAR-4): > 100 µM (inactive)
GI50 (OVCAR-8): 51.8 µM (inactive)
GI50 (COLO 205): 32.8 µM (inactive)
GI50 (HL-60): 32.6 µM (inactive)
GI50 (SNB-75): 43 µM (inactive)
GI50 (SNB-19): 50.9 µM (inactive)
GI50 (MDA-N): 4.7 µM (inactive)
GI50 (Malme-3M): 48 µM (inactive)
GI50 (TK-10): > 100 µM (inactive)
GI50 (MDA-MB-435): 5.43 µM (inactive)
GI50 (IGROV-1): 42.8 µM (inactive)
GI50 (MDA-MB-231): 50.9 µM (inactive)
GI50 (NCI-H226): 43.8 µM (inactive)
GI50 (HCC 2998): 12.4 µM (inactive)
GI50 (T47D): 53.7 µM (inactive)

CC(C)N(C(=O)C12C3(C(=O)C(C)(C)C)C4C5(C#N)C3C1(C(=O)C(C)(C)C)C5C42C(=O)C(C)(C)C)C(C)C (stereo unspecified)
GI50 (MOLT-4): > 100 µM (inactive)
GI50 (CCRF-CEM): > 100 µM (inactive)
GI50 (786-0): > 100 µM (inactive)
GI50 (NCI/ADR-RES): > 100 µM (inactive)
GI50 (EKVX): > 100 µM (inactive)
GI50 (K562): > 100 µM (inactive)
GI50 (SK-MEL-2): > 100 µM (inactive)
GI50 (ACHN): > 100 µM (inactive)
GI50 (KM12): > 100 µM (inactive)
GI50 (LOX IMVI): > 100 µM (inactive)
GI50 (SN12C): > 100 µM (inactive)
GI50 (SF-539): > 100 µM (inactive)
GI50 (PC-3): > 100 µM (inactive)
GI50 (SR): > 100 µM (inactive)
GI50 (HOP-62): > 100 µM (inactive)
GI50 (UO-31): > 100 µM (inactive)
GI50 (OVCAR-5): > 100 µM (inactive)
GI50 (UACC-257): > 100 µM (inactive)
GI50 (NCI-H23): > 100 µM (inactive)
GI50 (HCT-15): > 100 µM
GI50 (A498): > 100 µM (inactive)
GI50 (RXF 393): > 100 µM (inactive)
GI50 (SK-MEL-28): > 100 µM (inactive)
GI50 (NCI-H460): > 100 µM (inactive)
GI50 (Hs-578T): > 100 µM (inactive)
GI50 (HOP-92): 66.2 µM (inactive)
GI50 (DU-145): > 100 µM (inactive)
GI50 (BT-549): > 100 µM (inactive)
GI50 (HCT-116): > 100 µM (inactive)
GI50 (A549): > 100 µM (inactive)
GI50 (SF-268): > 100 µM (inactive)
GI50 (SW-620): > 100 µM (inactive)
GI50 (MCF7): > 100 µM (inactive)
GI50 (U-251): > 100 µM (inactive)
GI50 (OVCAR-3): > 100 µM (inactive)
GI50 (CAKI-1): > 100 µM (inactive)
GI50 (HT-29): > 100 µM (inactive)
GI50 (SK-MEL-5): > 100 µM (inactive)
GI50 (M14): > 100 µM (inactive)
GI50 (SF-295): > 100 µM (inactive)
GI50 (NCI-H522): > 100 µM (inactive)
GI50 (UACC-62): > 100 µM (inactive)
GI50 (OVCAR-4): > 100 µM (inactive)
GI50 (OVCAR-8): > 100 µM (inactive)
GI50 (COLO 205): > 100 µM (inactive)
GI50 (HL-60): > 100 µM (inactive)
GI50 (SNB-75): 14.1 µM (inactive)
GI50 (SNB-19): > 100 µM (inactive)
GI50 (MDA-N): > 100 µM (inactive)
GI50 (TK-10): > 100 µM (inactive)
GI50 (MDA-MB-435): > 100 µM (inactive)
GI50 (IGROV-1): > 100 µM (inactive)
GI50 (MDA-MB-231): > 100 µM (inactive)
GI50 (HCC 2998): > 100 µM (inactive)
GI50 (T47D): > 100 µM (inactive)

O=C(O)CC12CC3CC(CC(O)(C3)C1)C2
GI50 (786-0): > 100 µM (inactive)
GI50 (NCI/ADR-RES): > 100 µM (inactive)
GI50 (EKVX): > 100 µM (inactive)
GI50 (K562): > 100 µM (inactive)
GI50 (SK-MEL-2): > 100 µM (inactive)
GI50 (ACHN): > 100 µM (inactive)
GI50 (KM12): > 100 µM (inactive)
GI50 (LOX IMVI): > 100 µM (inactive)
GI50 (SN12C): > 100 µM (inactive)
GI50 (SF-539): > 100 µM (inactive)
GI50 (PC-3): > 100 µM (inactive)
GI50 (SR): > 100 µM (inactive)
GI50 (HOP-62): > 100 µM (inactive)
GI50 (UO-31): > 100 µM (inactive)
GI50 (OVCAR-5): > 100 µM (inactive)
GI50 (RPMI-8226): > 100 µM (inactive)
GI50 (UACC-257): > 100 µM (inactive)
GI50 (NCI-H23): > 100 µM (inactive)
GI50 (SK-OV-3): > 100 µM (inactive)
GI50 (HCT-15): > 100 µM
GI50 (A498): > 100 µM (inactive)
GI50 (RXF 393): > 100 µM (inactive)
GI50 (SK-MEL-28): > 100 µM (inactive)
GI50 (NCI-H460): > 100 µM (inactive)
GI50 (Hs-578T): 27.5 µM (inactive)
GI50 (HOP-92): > 100 µM (inactive)
GI50 (DU-145): > 100 µM (inactive)
GI50 (BT-549): > 100 µM (inactive)
GI50 (HCT-116): > 100 µM (inactive)
GI50 (A549): > 100 µM (inactive)
GI50 (SF-268): 31 µM (inactive)
GI50 (SW-620): > 100 µM (inactive)
GI50 (MCF7): > 100 µM (inactive)
GI50 (U-251): > 100 µM (inactive)
GI50 (OVCAR-3): 3.14 µM (inactive)
GI50 (CAKI-1): > 100 µM (inactive)
GI50 (HT-29): > 100 µM (inactive)
GI50 (SK-MEL-5): > 100 µM (inactive)
GI50 (M14): > 100 µM (inactive)
GI50 (SF-295): > 100 µM (inactive)
GI50 (NCI-H522): 27.7 µM (inactive)
GI50 (UACC-62): > 100 µM (inactive)
GI50 (OVCAR-4): > 100 µM (inactive)
GI50 (OVCAR-8): > 100 µM (inactive)
GI50 (COLO 205): > 100 µM (inactive)
GI50 (SNB-75): > 100 µM (inactive)
GI50 (SNB-19): > 100 µM (inactive)
GI50 (MDA-N): > 100 µM (inactive)
GI50 (Malme-3M): 34.7 µM (inactive)
GI50 (TK-10): > 100 µM (inactive)
GI50 (MDA-MB-435): > 100 µM (inactive)
GI50 (IGROV-1): > 100 µM (inactive)
GI50 (MDA-MB-231): > 100 µM (inactive)
GI50 (NCI-H226): > 100 µM (inactive)
GI50 (HCC 2998): > 100 µM (inactive)
GI50 (T47D): > 100 µM (inactive)
